The values that follow are results of earlier work, collected in patent US11141417B2 (priority 2013, dated 2021).

Entries after “also recorded” stand apart in the source; their conditions may differ.

The conditions of this data set: classification in words.

In the case of `C[C@@H](c1ncncc1F)[C@](O)(Cn1cncn1)c1ccc(F)cc1F` [Voriconazole, (2R,3S)-2-(2,4-difluorophenyl)-3-(5-fluoro-4-pyrimidinyl)-1-(1H-1,2,4triazol-1-yl)-2-butanol], the solubility in water entry is “only sparingly soluble in water; also recorded: very slightly soluble in water”.
